Entries after “also recorded” stand apart in the source; their conditions may differ.
Tested on: Ba/F3 EGFR del19/T790M/C797S cells
Experiment: Ba/F3 EGFR del19/T790M/C797S cell growth inhibition test (CellTiter-Glo, 72 hours);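 also: compounds tested in tenfold steps from 10 µM down to 0.1 nM, with luminescence read on a microplate reader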
Type: cell-based
Conditions: not given

SMILES	proliferation inhibitory effect in Ba/F3 cell line (in words)
C=CC(=O)Nc1cc(Nc2nccc(-c3cn(C)c4ccccc34)n2)c(OC)cc1N(C)CCN(C)C [Osimertinib, reference compound]	did not show proliferation inhibitory activity; also recorded: extremely insignificant inhibitory effect

Same assay, conditions: Ba/F3 EGFR-Del19/T790M/C797S, 72 h, read-out: Ba/F3 EGFR del19/T790M/C797S cells, GI50

SMILES	GI50
C=CC(=O)Nc1cc(Nc2nccc(-c3cn(C)c4ccccc34)n2)c(OC)cc1N(C)CCN(C)C [Osimertinib, reference compound]	> 1000 nM

Same assay, conditions: Ba/F3 cell line overexpressing EGFR del19/T790M/C797S, 72 hours, CellTiter-Glo; read-out: Ba/F3 EGFR del19/T790M/C797S cells, GI50

GI50	SMILES
93 nM	CN1CCN(c2ccc(Nc3nc(Nc4ccccc4N(C)S(C)(=O)=O)c4c(Cl)c[nH]c4n3)c(F)c2F)CC1 [Example 58, N-(2-((5-chloro-2-((2,3-difluoro-4-(4-methylpiperazin-1-yl)phenyl)amino)-7H-pyrrolo[2,3-d]pyrimidine-4-yl)amino)phenyl)-N-methylmethanesulfonamide]
49 nM	CC(C)S(=O)(=O)N(C)c1ccccc1Nc1nc(Nc2ccc(N3CCN(C)CC3)c(F)c2)nc2[nH]ccc12 [Example 47, N-(2-((2-((3-fluoro-4-(4-methylpiperazin-1-yl)phenyl)amino)-7H-pyrrolo[2,3-d]pyrimidine-4-yl)amino)phenyl)-N-methylpropan-2-sulfonamide]
95 nM	CN1CCC2(CC1)CN(c1ccc(Nc3nc(Nc4ccccc4N(C)S(C)(=O)=O)c4cc[nH]c4n3)cc1F)C2 [Example 37, N-(2-((2-((3-fluoro-4-(7-methyl-2,7-diazaspiro[3.5]nonan-2-yl)phenyl)amino)-7H-pyrrolo[2,3-d]pyrimidine-4-yl)amino)phenyl)-N-methylmethanesulfonamide]
522 nM	Cc1cc(N2CCN(C)CC2)ccc1Nc1nc(Nc2ccccc2N(C)S(C)(=O)=O)c2cc[nH]c2n1 [Example 2, N-methyl-N-(2-((2-((2-methyl-4-(4-methylpiperazin-1-yl)phenyl)amino)-7H-pyrrolo[2,3-d]pyrimidine-4-yl)amino)phenyl)methanesulfonamide]
65 nM	CN(c1ccccc1Nc1nc(Nc2ccc(N3CCC4(CC3)COC4)c(F)c2)nc2[nH]ccc12)S(C)(=O)=O [Example 40, N-(2-((2-((3-fluoro-4-(2-oxa-7-azaspiro[3.5]nonan-7-yl)phenyl)amino)-7H-pyrrolo[2,3-d]pyrimidine-4-yl)amino)phenyl)-N-methylmethanesulfonamide]
72 nM	CC(C)N(c1ccccc1Nc1nc(Nc2ccc(N3CCN(C)CC3)c(F)c2)nc2[nH]ccc12)S(C)(=O)=O [Example 44, N-(2-((2-((3-fluoro-4-(4-methylpiperazin-1-yl)phenyl)amino)-7H-pyrrolo[2,3-d]pyrimidine-4-yl)amino)phenyl)-N-isopropylmethanesulfonamide]
3.1 nM	CN1CCN(c2ccc(Nc3nc(Nc4ccccc4N(C)S(C)(=O)=O)c4cc[nH]c4n3)cc2)CC1 [Example 1, N-methyl-N-(2-((2-((4-(4-methylpiperazin-1-yl)phenyl)amino)-7H-pyrrolo[2,3-d]pyrimidine-4-yl)amino)phenyl)methanesulfonamide]
626 nM	CN1CCN(c2ccc(Nc3nc(Nc4ccccc4N(C)S(C)(=O)=O)c4cc[nH]c4n3)nc2)CC1 [Example 29, N-methyl-N-(2-((2-((5-(4-methylpiperazin-1-yl)pyridin-2-yl)amino)-7H-pyrrolo[2,3-d]pyrimidine-4-yl)amino)phenyl)methanesulfonamide]
73 nM	CN(c1ccccc1Nc1nc(Nc2ccc(N3CCC(N4CCOCC4)CC3)c(F)c2)nc2[nH]ccc12)S(C)(=O)=O [Example 18, N-(2-((2-((3-fluoro-4-(4-morpholinopiperidin-1-yl)phenyl)amino)-7H-pyrrolo[2,3-d]pyrimidine-4-yl)amino)phenyl)-N-methylmethanesulfonamide]
19 nM	CN1CCN(c2ccc(Nc3nc(Nc4ccccc4N(C)S(C)(=O)=O)c4cc[nH]c4n3)cc2F)CC1 [Example 7, N-(2-((2-((3-fluoro-4-(4-methylpiperazin-1-yl)phenyl)amino)-7H-pyrrolo[2,3-d]pyrimidine-4-yl)amino)phenyl)-N-methylmethanesulfonamide]
30 nM	CN1CCN(c2ccc(Nc3nc(Nc4ccccc4N(C)S(=O)(=O)C4CC4)c4cc[nH]c4n3)cc2F)CC1 [Example 48, N-(2-((2-((3-fluoro-4-(4-methylpiperazin-1-yl)phenyl)amino)-7H-pyrrolo[2,3-d]pyrimidine-4-yl)amino)phenyl)-N-methylcyclopropanesulfonamide]
185 nM	CN1CCC2(CC1)CCN(c1ccc(Nc3nc(Nc4ccccc4N(C)S(C)(=O)=O)c4cc[nH]c4n3)cc1F)C2 [Example 35, N-(2-((2-((3-fluoro-4-(8-methyl-2,8-diazaspiro[4.5]decan-2-yl)phenyl)amino)-7H-pyrrolo[2,3-d]pyrimidine-4-yl)amino)phenyl)-N-methylmethanesulfonamide]
11 nM	CCN1CCC2(CC1)CCN(c1ccc(Nc3nc(Nc4ccccc4N(C)S(C)(=O)=O)c4cc[nH]c4n3)cc1F)CC2 [Example 32, N-(2-((2-((4-(9-ethyl-3,9-diazaspiro[5.5]undecan-3-yl)-3-fluorophenyl)amino)-7H-pyrrolo[2,3-d]pyrimidine-4-yl)amino)phenyl)-N-methanesulfonamide]
4.2 nM	CN(c1ccccc1Nc1nc(Nc2ccc(N3CCOCC3)c(F)c2)nc2[nH]ccc12)S(C)(=O)=O [Example 12, N-(2-((2-((3-fluoro-4-morpholinophenyl)amino)-7H-pyrrolo[2,3-d]pyrimidine-4-yl)amino)phenyl)-N-methylmethanesulfonamide]
37 nM	CCN(c1ccccc1Nc1nc(Nc2ccc(N3CCN(C)CC3)c(F)c2)nc2[nH]ccc12)S(C)(=O)=O [Example 43, N-ethyl-N-(2-((2-((3-fluoro-4-(4-methylpiperazin-1-yl)phenyl)amino)-7H-pyrrolo[2,3-d]pyrimidine-4-yl)amino)phenyl)methanesulfonamide]
453 nM	CN1CCN(c2ccc(Nc3nc(Nc4ccccc4N(C)S(C)(=O)=O)c4cc[nH]c4n3)cc2O)CC1 [Example 4, N-(2-((2-((3-hydroxy-4-(4-methylpiperazin-1-yl)phenyl)amino)-7H-pyrrolo[2,3-d]pyrimidine-4-yl)amino)phenyl)-N-methylmethanesulfonamide]
141 nM	CN1C[C@@H]2CN(c3ccc(Nc4nc(Nc5ccccc5N(C)S(C)(=O)=O)c5cc[nH]c5n4)cc3F)C[C@@H]2C1 [Example 41, N-(2-((2-((3-fluoro-4-((3aR,6aS)-5-methylhexahydropyrrolo[3,4-c]pyrrole-2(1H)-yl)phenyl)amino)-7H-pyrrolo[2,3-d]pyrimidine-4-yl)amino)phenyl)-N-methylmethanesulfonamide]
28 nM	CN1CCN(C2CCN(c3ccc(Nc4nc(Nc5ccccc5N(C)S(C)(=O)=O)c5c(F)c[nH]c5n4)cc3F)CC2)CC1 [Example 64, N-(2-((5-fluoro-2-((3-fluoro-4-(4-(4-methylpiperazin-1-yl)piperidin-1-yl)phenyl)amino)-7H-pyrrolo[2,3-d]pyrimidine-4-yl)amino)phenyl)-N-methylmethanesulfonamide]
31 nM	Cc1cc(Nc2nc(Nc3ccccc3N(C)S(C)(=O)=O)c3cc[nH]c3n2)ccc1N1CCN(C)CC1 [Example 5, N-methyl-N-(2-((2-((3-methyl-4-(4-methylpiperazin-1-yl)phenyl)amino)-7H-pyrrolo[2,3-d]pyrimidine-4-yl)amino)phenyl)methanesulfonamide]
54 nM	CN1CCN(c2ccc(Nc3nc(Nc4ccccc4N(C)S(C)(=O)=O)c4cc[nH]c4n3)cc2Cl)CC1 [Example 6, N-(2-((2-((3-chloro-4-(4-methylpiperazin-1-yl)phenyl)amino)-7H-pyrrolo[2,3-d]pyrimidine-4-yl)amino)phenyl)-N-methylmethanesulfonamide]
6 nM	CN1CCN(c2ccc(Nc3nc(Nc4ccccc4N(C)S(C)(=O)=O)c4cc[nH]c4n3)c(F)c2F)CC1 [Example 27, N-(2-((2-((2,3-difluoro-4-(4-methylpiperazin-1-yl)phenyl)amino)-7H-pyrrolo[2,3-d]pyrimidine-4-yl)amino)phenyl)-N-methylmethanesulfonamide]
25 nM	CCN1CCN(c2ccc(Nc3nc(Nc4ccccc4N(C)S(=O)(=O)CC)c4cc[nH]c4n3)cc2F)CC1 [Example 51, N-(2-((2-((4-(4-ethylpiperazin-1-yl)-3-fluorophenyl)amino)-7H-pyrrolo[2,3-d]pyrimidine-4-yl)amino)phenyl)-N-methylethanesulfonamide]
17 nM	CN(C)C1CCN(c2ccc(Nc3nc(Nc4ccccc4N(C)S(C)(=O)=O)c4cc[nH]c4n3)cc2F)CC1 [Example 21, N-(2-((2-((4-(4-(dimethylamino)piperidin-1-yl)-3-fluorophenyl)amino)-7H-pyrrolo[2,3-d]pyrimidine-4-yl)amino)phenyl)-N-methylmethanesulfonamide]
22 nM	CN1CCN(c2c(F)cc(Nc3nc(Nc4ccccc4N(C)S(C)(=O)=O)c4cc[nH]c4n3)cc2F)CC1 [Example 25, N-(2-((2-((3,5-difluoro-4-(4-methylpiperazin-1-yl)phenyl)amino)-7H-pyrrolo[2,3-d]pyrimidine-4-yl)amino)phenyl)-N-methylmethanesulfonamide]
16 nM	CCS(=O)(=O)N(C)c1ccccc1Nc1nc(Nc2ccc(N3CCN(C)CC3)c(F)c2)nc2[nH]ccc12 [Example 46, N-(2-((2-((3-fluoro-4-(4-methylpiperazin-1-yl)phenyl)amino)-7H-pyrrolo[2,3-d]pyrimidine-4-yl)amino)phenyl)-N-methylethanesulfonamide]
15 nM	Cc1c[nH]c2nc(Nc3ccc(N4CCN(C)CC4)c(F)c3)nc(Nc3ccccc3N(C)S(C)(=O)=O)c12 [Example 60, N-(2-((2-((3-fluoro-4-(4-methylpiperazin-1-yl)phenyl)amino)-5-methyl-7H-pyrrolo[2,3-d]pyrimidine-4-yl)amino)phenyl)-N-methylmethanesulfonamide]
9.4 nM	CN1CCN(c2ccc(Nc3nc(Nc4ccccc4N(C)S(C)(=O)=O)c4cc[nH]c4n3)cn2)CC1 [Example 30, N-methyl-N-(2-((2-((6-(4-methylpiperazin-1-yl)pyridin-3-yl)amino)-7H-pyrrolo[2,3-d]pyrimidine-4-yl)amino)phenyl)methanesulfonamide]

Same assay, conditions: read-out: Ba/F3 EGFR del19/T790M/C797S cells, GI50

SMILES	GI50
C=CC(=O)Nc1cc(Nc2nccc(-c3cn(C)c4ccccc34)n2)c(OC)cc1N(C)CCN(C)C [Osimertinib, reference compound]	1120 nM

— patent US12319695B2, “Sulfonamide derivative with fused pyrimidine skeleton, having epidermal growth factor receptor mutation inhibitory effect” (HANMI PHARM. CO., LTD., priority 2018, dated 2025)
